Assay results taken from US8871232B2, “Self-indicating wipe for removing bacteria from a surface” (Kimberly-Clark Worldwide, Inc., priority 2007, dated 2014).

Experiments:
S. aureus = experiment: Wipe test: removal of S. aureus from ceramic tile and transfer to clean tile, visualised with indicator spray; conditions: WTCL wipe treated with aluminum chlorohydrate (1% W/W, add-on approx. 6 to 7%) and 1% Reichardt's dye dots; 100 microliter drops of 10^7 CFU/ml S. aureus on ceramic tile; control wipe's "X" readily visible
Protocol: A wire-textured coform laminate (WTCL) was treated with aluminum chlorohydrate (1% W/W) using a dip and nip procedure, with a resulting add-on of approximately 6 to 7%. The treated WTCL was then treated with a 1% solution of Reichardt's dye indicator (prepared in acetonitrile) in a small dot pattern using a syringe. Control WTCL wipe material without aluminum chlorohydrate was also used for this experiment as a control. Two 100 microliter drops of 10^7 CFU/ml S. aureus were placed onto a ceramic tile. Treated wipe and control material were both used to wipe the drop off of the tile. These wipes were then used to make an “X” onto clean tiles. These tiles were then sprayed with bacterial indicator solution (80 mg/10 mL acetonitrile) using a Chromist® spray can. The treated WTCL was then also sprayed with the indicator. Finally, the treated wipe (now clearly visible) containing the bacteria was once again used to wipe a clean area of tile. This area was then sprayed with the indicator. The “X” for the control was readily visible.

live culture yogurt = experiment: Colour change of Reichardt's dye lines on paper towel after wiping a contaminated cutting board; conditions: VIVA paper towels sprayed with saturated Reichardt's dye in isopropanol with potassium hydroxide; cutting board with light smears of live culture yogurt
Excerpt: Sheets of VIVA® paper towels (Kimberly-Clark Corporation, Neenah Wis.) were placed on a flat surface, three sheets wide. A stainless steel grilling grate (Weber Company, purchased from Home Depot store) was placed onto top of the sheets. Next a 100-milliliter saturated solution of Reichardt's dye in isopropanol with 10 milliliters of potassium hydroxide was placed into a container and then sprayed (Chromist sprayer) over the grilling grate with the VIVA® towels underneath. The grilling grate was removed and the towels were hung in a fumehood and allowed to dry. The paper towels now had multiple parallel lines of the Reichardt's dye across the paper towel. The lines were 4 centimeters apart. Onto a cutting board surface (plastic cutting boards, Kroger grocery store) was applied light smears (3 cm×15 cm) of live culture yogurt. Next, the treated VIVA® paper towels were used to wipe the surface of the cutting board.

Row | Compound | transfer of bacteria from used wipe to clean tile (S. aureus) | color of the Reichardt's dye lines on contact with contaminated surface (live culture yogurt)
1 | aluminum chlorohydrate | did not transfer bacteria to the clean tile | 
2 | [O-]c1c(-c2ccccc2)cc(-[n+]2c(-c3ccccc3)cc(-c3ccccc3)cc2-c2ccccc2)cc1-c1ccccc1 [Reichardt's dye, 4-(2,4,6-triphenylpyridinium-1-yl)-2,6-diphenylphenolate] |  | rapidly discharged
